These results are taken from publication PMC5458052 (Nature Communications, 2017).

Data set [1] relates to P. falciparum clinical field isolates. Briefly: microbe, parasite or virus in culture. Type of data set: cell-based. The settings on record: Plasmodium falciparum, read-out: Median IC50.
Data set [2] has as its system P. vivax clinical field isolates. The data set can be described thus: microbe, parasite or virus in culture. Format: cell-based. The conditions noted are these: Plasmodium vivax, read-out: Median IC50.
In data set [3] the test system is P. falciparum lab lines FC27 and K1. Briefly: microbe, parasite or virus in culture. Format: cell-based. The settings on record: Plasmodium falciparum, median of 3 independent experiments.
The subject of data set [4] is P. falciparum strain 3D7A. On the set-up: method as in PMID 22383983. The settings on record: cited from earlier work.
In data set [5] the test system is P. falciparum strains (sensitive and resistant). The data set can be described thus: microbe, parasite or virus in culture. Type of data set: cell-based. The conditions noted are these: Plasmodium falciparum, mean ± SD n=3.
For data set [6], the system named is P. falciparum 3D7. Briefly: In vitro antimalarial activity, drug sensitivity testing (3D7). Format: cell-based. The conditions noted are these: Plasmodium falciparum.
Data set [7] in a line: In vitro intrinsic clearance, human liver microsomes (Chem Partners). Type of data set: in vitro ADME. The settings on record: human (H) liver microsomes. (In general: Microsomes from liver hold many membrane-bound enzymes, among them those of drug oxidation.)
A short description of data set [8]: In vitro intrinsic clearance, rat liver microsomes (Chem Partners). Type of data set: in vitro ADME. The settings on record: rat (R) liver microsomes.
A short description of data set [9]: Rat blood stability in vitro. The settings on record: male, Sprague Dawley, freshly collected whole blood.
Data set [10] can be described thus: Rat PK iv 1 mg/kg (Chem Partners). The conditions noted are these: in vivo.
Data set [11] deals with P. berghei. Set-up: species or system Plasmodium berghei.
Data set [12] is described as follows: Metabolic stability and metabolite profile in rat liver microsomes. Type of data set: in vitro ADME. The settings on record: for Relative Peak Area (expressed as % total metabolite peak area generated over 60 minutes): metabolite of E209, rat liver microsomes with NADPH; for Degradation half-life / In vitro CLint / Microsome-Predicted EH: rat liver microsomes.

A short description of data set [13]: Metabolic stability and metabolite profile in mouse liver microsomes. Type of data set: in vitro ADME. The conditions noted are these: for Relative Peak Area (expressed as % total metabolite peak area generated over 60 minutes): metabolite of E209, mouse liver microsomes with NADPH; for Degradation half-life / In vitro CLint / Microsome-Predicted EH: mouse liver microsomes.

Data set [14] in a line: Metabolic stability and metabolite profile in human liver microsomes. The conditions noted are these: for Relative Peak Area (expressed as % total metabolite peak area generated over 60 minutes): metabolite of E209, human liver microsomes with NADPH; for In vitro CLint / Microsome-Predicted EH / Degradation half-life: human liver microsomes.
The nature of data set [15]: Solubility at 37°C over a 6 hour incubation. Format: physicochemical. The settings on record: free base equivalent.
The mark [16] stands for this setting: 10 × IC50, previous results on standard anti-malarials.

Where “and” joins values, the source holds several entries; their conditions need not be identical. Identical values can stand only once. Like-named read-outs stand apart in the source and are kept apart here.

For `CCN(CC)Cc1cc(Nc2ccnc3cc(Cl)ccc23)ccc1O` [Amodiaquine, amodiaquine], the IC50 (usually the midpoint of a concentration-inhibition curve) is 25.6 nM in data set [1]; 50.6 nM in data set [2]; 33.1 nM in data set [3] (K1, FC27 (CQ S) lab line); 39.3 nM in data set [3] (K1, K1 (CQ R) lab line).
With `C[C@@H]1CC[C@H]2[C@@H](C)C(=O)O[C@@H]3O[C@@]4(C)CC[C@@H]1[C@]32OO4` [Artemisinin, artemisinin], in data set [4], the Lag phase was 0 h, the “Log PRR” value is > 4.8, the “PCT 99.9 %” value is < 24 h and the Slope is listed as −0.101.
Consider `O=C1C(O)=C([C@H]2CC[C@H](c3ccc(Cl)cc3)CC2)C(=O)c2ccccc21` [Atovaquone, atovaquone], for which, in data set [4] (setting [16]), the Lag phase was 48 h, the “Log PRR” value was 2.9, the “PCT 99.9 %” value is given as 81 h and the Slope is on record as −0.060.
In the case of `CCN(CC)CCCC(C)Nc1ccnc2cc(Cl)ccc12` (stereo not shown) [Chloroquine, chloroquine], the IC50 in [5] (DD2, strain Dd2 (chloroquine resistant)) came out at 150 ± 25.7 nM; in data set [5] (HB3, strain HB3 (chloroquine sensitive)), 9 ± 1.5 nM; in data set [5] (NF54, strain NF54 (chloroquine sensitive)), 5.9 ± 1 nM; in data set [5] (TM90C2B, strain TM90C2B (chloroquine resistant)), 121 ± 20.6 nM; in data set [5] (strain 7G8 (chloroquine resistant)), 55 ± 9.4 nM; in data set [5] (strain D6 (chloroquine sensitive)), 8.6 ± 1.5 nM. The IC50 was 66 ± 11.3 nM in [5] (strain FCB (chloroquine resistant)); 173 ± 29.5 nM in data set [5] (strain K1 (chloroquine resistant)); 194 ± 33 nM in [5] (strain V1/S (chloroquine resistant)); 85.5 nM in data set [1]; 147 nM in data set [2]; 212 nM in data set [3] (K1, K1 (CQ R) lab line). The Lag phase in data set [4] is 0 h. Besides, the “PCT 99.9 %” value in data set [4] is reported as 34 h. Also, in data set [4], the Slope is −0.094.
In [6], `c1cc(C2CCC3(CC2)OOC2(OO3)C3CC4CC(C3)CC2C4)ccc1OCCN1CCOCC1` (stereo not shown) [Compound 4] showed an IC50 of 10 ± 1 nM. In addition, in [7], the CLint scaled – broadly, a measure of how fast metabolising enzymes remove a compound, apart from limits set by blood flow – was 135 mL/min/kg. This compound gave a CLint scaled in data set [8] of 86 mL/min/kg. In addition, the half-life (commonly the time in which the quantity being followed falls by half) at 1 µM in data set [9] was 14 h. Moreover, in data set [10], the clearance (usually the volume of plasma or blood freed of the substance per unit of time) was found to be 7.1 mL/min/kg and the half-life was 1.1 h.
For the compound `c1cc(C2CCC3(CC2)OOC2(OO3)C3CC4CC(C3)CC2C4)ccc1OCCCN1CCOCC1` (stereo not shown) [Compound 5], in data set [6], the midpoint of inhibition, the IC50, lay at 7.5 ± 0.2 nM. In addition, the “In vivo (Pb) MSD (days) at 1 x 30 mg/kg” value in data set [11] came to 16 days. Moreover, the CLint scaled in data set [7] amounted to 147 mL/min/kg; in data set [8], 75 mL/min/kg. The same compound had a half-life at 1 µM in [9] of 15 h. For the same compound, the clearance in [10] was 6.5 mL/min/kg. Moreover, in data set [10], the half-life is 1.5 h.
On to `CS(=O)(=O)N1CCN(CCOc2ccc(C3CCC4(CC3)OOC3(OO4)C4CC5CC(C4)CC3C5)cc2)CC1` (stereo not shown) [Compound 6], for which the midpoint of inhibition in data set [6], the IC50, lay at 3.5 ± 0.2 nM. Further, the “In vivo (Pb) MSD (days) at 1 x 30 mg/kg” value in [11] was 19 days and 19.3 (14, 30,14) days. The CLint scaled in data set [7] is 257 mL/min/kg. This compound came in with an intrinsic clearance (CLint scaled) in data set [8] of 38 mL/min/kg. In addition, the half-life at 1 µM in data set [9] is 12 h. In [10], this compound gave a clearance of 3.5 mL/min/kg and a half-life of 3.2 h.
For `FC1(F)CCN(CCOc2ccc(C3CCC4(CC3)OOC3(OO4)C4CC5CC(C4)CC3C5)cc2)CC1` (stereo not shown) [Compound 8], inhibition in [6] was half-maximal at 8.5 ± 0.6 nM (IC50). Further, the intrinsic metabolic clearance (CLint scaled) in data set [7] amounted to 107 mL/min/kg; in [8], 60 mL/min/kg. The half-life at 1 µM in data set [9] was 16 h. Further, the clearance in [10] was determined as 1.3 mL/min/kg. Besides, the half-life in data set [10] was 2.8 h.
In the case of `OC1CCC(c2ccc(OCCN3CCC(F)CC3)cc2)CC1` (stereo not shown) [Compound M-180], the entries for the “Relative Peak Area (expressed as % total metabolite peak area generated over 60 minutes)” value in [12], in data set [13] and in [14] were 9%, 20% and 10%, respectively.
On the same counts, the results for `O=C1CCC(c2ccc(OCCN3CCC(F)CC3)cc2)CC1` [Compound M-182] are 13%, 27% and 11%.
Take `c1cc(C2CCC3(CC2)OOC2(OO3)C3CC4CC(C3)CC2C4)ccc1CN1CCOCC1` (stereo not shown) [Compound N205]: the Degradation half-life amounted to 0.25 h in [12] (substrate 1 µM); 0.333 h in data set [12] (substrate 5 µM); 0.8 h in data set [13] (substrate 1 µM); 1.45 h in [13] (substrate 5 µM); 0.567 h in data set [14] (substrate 1 µM, NADPH-dependent); 0.717 h in data set [14] (substrate 5 µM). For the same compound, the “In vitro CLint” value was found to be 118 µL/min/mg protein in data set [12] (substrate 1 µM); 89 µL/min/mg protein in [12] (substrate 5 µM); 37 µL/min/mg protein in data set [13] (substrate 1 µM); 20 µL/min/mg protein in data set [13] (substrate 5 µM); 51 µL/min/mg protein in [14] (substrate 1 µM); 41 µL/min/mg protein in data set [14] (substrate 5 µM). Also, the “Microsome-Predicted EH” value in data set [12] (substrate 1 µM) was 0.75; in data set [12] (substrate 5 µM) it was 0.69; in [13] (substrate 1 µM) it was 0.44; in data set [13] (substrate 5 µM), 0.30; in data set [14] (substrate 1 µM), 0.67; in [14] (substrate 5 µM) it was 0.62.
As for `[O-][N+]1(CCOc2ccc(C3CCC4(CC3)OOC3(OO4)C4CC5CC(C4)CC3C5)cc2)CCC(F)CC1` (stereo not shown) [M+16 (IV)], the “Relative Peak Area (expressed as % total metabolite peak area generated over 60 minutes)” value stood at 50% in data set [12], 9% in data set [13] and 4% in data set [14].
`OC(c1cc(C(F)(F)F)nc2c(C(F)(F)F)cccc12)C1CCCCN1` (stereo not shown) [Mefloquine, mefloquine]: the IC50 in data set [1] was 12.7 nM; in data set [2] it was 18 nM; in [3] (K1, FC27 (CQ S) lab line), 56.2 nM.
Regarding `CS(=O)(=O)O.c1cc(C2CCC3(CC2)OOC2(OO3)C3CC4CC(C3)CC2C4)ccc1CN1CCOCC1` (stereo not shown) [N205 mesylate], the Solubility – broadly, the concentration that dissolves in the medium under given conditions – is recorded as 250 µg/mL in [15] (0.01 N HCl, media pH 2.0, 37°C, 1 h); 172 µg/mL in [15] (0.01 N HCl, media pH 2.0, 37°C, 4 h); 155 µg/mL in data set [15] (0.01 N HCl, media pH 2.0, 37°C, 6 h); 21.2 µg/mL in data set [15] (0.1 N HCl, media pH 1.0, 37°C, 1 h); 17.2 µg/mL in [15] (0.1 N HCl, media pH 1.0, 37°C, 4 h); 16.0 µg/mL in data set [15] (0.1 N HCl, media pH 1.0, 37°C, 6 h). Further, the Solubility is on record as < 0.1 µg/mL in data set [15] (FaSSIF blank, 37°C, 1 h); < 0.1 µg/mL in [15] (FaSSIF blank, 37°C, 4 h); < 0.1 µg/mL in data set [15] (FaSSIF blank, 37°C, 6 h); 24.0 µg/mL in [15] (FaSSIF, media pH 6.5, 37°C, 1 h); 18.1 µg/mL in [15] (FaSSIF, media pH 6.5, 37°C, 4 h); 26.7 µg/mL in [15] (FaSSIF, media pH 6.5, 37°C, 6 h). The Solubility came to 2.3 µg/mL in [15] (FeSSIF blank, 37°C, 1 h); 0.9 µg/mL in data set [15] (FeSSIF blank, 37°C, 4 h); 1.2 µg/mL in data set [15] (FeSSIF blank, 37°C, 6 h); 1089 µg/mL in data set [15] (FeSSIF, media pH 5.0, 37°C, 1 h); 755 µg/mL in data set [15] (FeSSIF, media pH 5.0, 37°C, 4 h); 783 µg/mL in data set [15] (FeSSIF, media pH 5.0, 37°C, 6 h). Further, the Solubility is listed as < 0.1 µg/mL in data set [15] (Phosphate buffer, media pH 7.4, 37°C, 1 h); < 0.1 µg/mL in data set [15] (Phosphate buffer, media pH 7.4, 37°C, 4 h); < 0.1 µg/mL in [15] (Phosphate buffer, media pH 7.4, 37°C, 6 h).
On to `Clc1ccc2c(N3CCN(CCCN4CCN(c5ccnc6cc(Cl)ccc56)CC4)CC3)ccnc2c1` [Piperaquine, piperaquine], for which the concentration for half-maximal inhibition (IC50) worked out at 35.6 nM in data set [1]; 33.8 nM in data set [2]; 54.6 nM in data set [3] (K1, FC27 (CQ S) lab line); 75.5 nM in data set [3] (K1, K1 (CQ R) lab line).
As for `CCc1nc(N)nc(N)c1-c1ccc(Cl)cc1` [Pyrimethamine, pyrimethamine], in data set [4] (setting [16]), the Lag phase was 24 h, the “Log PRR” value is recorded as 3.7, the “PCT 99.9 %” value is reported as 57 h and the Slope was −0.077.
